One data set relates to RAW 264.7 cells. The data set can be described thus: MTT cell viability assay. The class given is cell-based, murine. The procedure:
Cell culture—RAW 264.7 cells (murine macrophage cell line) were acquired from American Type Culture Collection (ATCC, Rockville, Md., USA) were employed for cell culture experiments.
MTT assay—RAW 264.7 cells (2×10^5 cells/mL, 100 μL) were plated in each well of a black 96-well plate and adhered overnight. The adhered cells were treated with free PhA (DMSO: PBS, 1:3) or PhA loaded BCNs (PBS) or CT BCNs or PhA-CT BCNs and incubated for 4 h. […] Post irradiation, cells were incubated for predetermined time intervals and then added with MTT (5 mg/mL in PBS, 10 μL). After 4 h MTT incubation with cells, formazan crystal deposition in each well was dissolved in DMSO (200 μL) and the absorbance was measured at 560 nm. All the samples were analyzed in quadruplicates.
The percentage cell viability was calculated as:
% cell viability=(OD of treated sample/OD of untreated sample)*100.

A short description of data set [1]: Encapsulation efficiency in PEG-b-PPS BCNs. The following applies: in PEG-b-PPS BCNs by FNP; hydrophilic cargo co-encapsulated with PhA. It counts as physicochemical. As for the experimental part:
Formation of PEG-b-PPS BCNs—BCNs were formed by flash nanoprecipitation (FNP) technique using a hand-driven CIJ mixer as described previously.^3, 14 10 mg of PEG-b-PPS polymer was dissolved in 500 μL of tetrahydrofuran (THF) and was impinged against 500 μL of Milli-Q water. After impingement the nascent BCNs were diluted in a 1.5 mL reservoir of Milli-Q water. THF was removed by vacuum desiccation overnight, resulting in a 5 mg/mL BCN formulation in water. In cases where hydrophobic cargo was loaded into BCNs, the cargo was dissolved along with the 10 mg of PEG-b-PPS polymer in the 500 μL of THF used for impingement. In cases where hydrophilic cargo was loaded into BCNs, the cargo was dissolved in the 500 μL of water used for impingement.
Loading and determination of encapsulation efficiency—The loading of hydrophilic molecules (Calcein, FITC-BSA, BODIPY-BSA) or hydrophobic molecules (Pheophorbide A or Camptothecin) in to BCNs was performed using FNP technique as stated above. Here, 500 μL of Calcien (1 mM) or fluorophore-BSA (2 mg/mL) in water was impinged against 500 μL of Pheophorbide A (0.2 mg/ml) or Camptothecin (0.6 mg/ml) in THF into an aqueous reservoir to form BCNs. After removal of THF via desiccation, BCNs were washed two times with distilled water by centrifugation (10,000×g, 10 min) to remove all the unencapsulated payloads and further resuspended in PBS or water for analysis. The amount of Pheophorbide A was determined by calculating absorbance at 666 nm. Calcein, FITC/BODIPY-BSA, and Camptothecin loading was analyzed by measuring fluorescence intensities at 470/509, 495/525, and 359/434 (excitation/emission, nm), respectively.

Data set [2] can be described thus: In vitro BCN degradation and release of payloads after irradiation. The class given is physicochemical. The following applies: centrifugation. As for the experimental part:
In vitro BCN degradation and Release of payloads—In vitro degradation studies of PhA BCNs were performed under irradiation. Briefly, 200 μL of PhA BCNs (1 mg/ml) was transferred in to multiple wells of a 96 well black plate and then irradiated for 2.5 min at 50 mW/cm^2. The irradiated samples were immediately collected and centrifuged at 10,000×g for 10 min. After centrifugation, the supernatants and pellets were collected separately and analyzed using DLS and TEM as described above.
In vitro release of calcein, FITC-BSA, ethyl eosin and PhA from BCNs was measured after irradiation. 200 μL of PBS containing PhA BCNs co-loaded with calcein or FITC-BSA, or PhA BCNs and ethyl eosin BCNs, were transferred in to multiple wells of a 96 well black plate and then irradiated at 50 mW/cm^2 for 1.25, 2.5, 5 and 10 minutes. Post irradiation samples were centrifuged at 10,000×g for 10 min and supernatants were collected and further analyzed for amount released as described earlier. For PhA BCNs and ethyl eosin BCNs, % transmittance was measured using an M3 plate reader.

The next data set has as its system DN1 T cells. In words: Vaccination with BMDC treated ex vivo with MA or MA BCN, DN1 T cell activation and proliferation. The class given is in vivo, hCD1Tg mice. The conditions noted are these: 1 or 6 weeks after intratracheal vaccination; MA BCN vs MA pulsed BMDC. The source says:
One week before the 1 and 6 week timepoints, 3e6 DN1 T cells were adoptively transferred intravenously. DLN, lung, and spleen were obtained.

The conditions of data set [3]: cited from earlier work.

In the case of `CC[C@@]1(O)C(=O)OCc2c1cc1n(c2=O)Cc2cc3ccccc3nc2-1` [free camptothecin, camptothecin], the “Cytotoxicity (MTT viability)” value with RAW 264.7 cells (free drug, camptothecin 0.63 μg/mL, 48 h) is reported as “significantly more cytotoxic than non-irradiated CT-PhA-BCNs”; with RAW 264.7 cells (non-irradiated, 24 h, three camptothecin concentrations (0.63, 1.56, 3.1 μg/mL)), “dose-dependent cytotoxicity at 24 h”; in the data set on RAW 264.7 cells (non-irradiated, 48 h, three camptothecin concentrations), “high cytotoxicity regardless of concentration at 48 h”.
`O=C(O)CN(CC(=O)O)Cc1cc2c(cc1O)Oc1cc(O)c(CN(CC(=O)O)CC(=O)O)cc1C21OC(=O)c2ccccc21` [calcein] showed an Encapsulation efficiency in data set [1] of 6.7±1.9%.
Take `CCOC(=O)c1ccccc1-c1c2cc(Br)c(=O)c(Br)c-2oc2c(Br)c([O-])c(Br)cc12.[K+]` [ethyl eosin]: in data set [2], the “Release of photo-oxidizer into the supernatant after irradiation of loaded BCNs” value is on record as “comparably ineffective”.
Consider mycolic acid [MA], for which the “Activation and proliferation of DN1 T cells after vaccination with treated BMDC” value with DN1 T cells is “differences in activation and proliferation of DN1 T cells 6 weeks after vaccination, but not 1 week after vaccination”.
The compound “FITC-BSA: fluorescein-tagged bovine serum albumin” registered an Encapsulation efficiency in data set [1] of 34±4%.
The logP is the decadic logarithm of the partition coefficient of the neutral form, usually between octanol and water. The compound pheophorbide A [PhA] displayed an Encapsulation efficiency in data set [1] of 80.7±2.2%. In addition, the “Release of photo-oxidizer into the supernatant after irradiation of loaded BCNs” value in data set [2] was “significantly greater amounts than the comparably ineffective ethyl eosin”. Also, in the data set on RAW 264.7 cells (RAW 264.7 cells, with irradiation vs non-irradiated, 12 h after irradiation), the “Cell viability (MTT)” value is on record as “significant cell death”. Also, the log partition coefficient (logP) in data set [3] is 6.93.
